Assay results taken from ChEMBL document CHEMBL1201862, “PubChem BioAssay data set” (2004).
One block for each compound: values may come before it. Calls of active or inactive are those of the source.

Experiments:
[1] = target: ALK tyrosine kinase receptor (Homo sapiens, UniProt Q9UM73); format: functional;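 also: ALK tested as one member of a kinase panel screen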
Aurora kinase A = Aurora kinase A (Homo sapiens, UniProt O14965); format: functional;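 also: value from the Navigating the Kinome kinase panel profiling, panel entry STK6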
Focal adhesion kinase 1 = Focal adhesion kinase 1 (Homo sapiens, UniProt Q05397); format: functional;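 also: measured as one member of a kinome panel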
Aurora kinase B = Aurora kinase B (Homo sapiens, UniProt Q96GD4); format: functional
[2] = target: Beta-2 adrenergic receptor (Homo sapiens, UniProt P07550); assay: beta2AR agonists driving receptor internalization, dose response, cell-based, FAP fluorogen, flow cytometry, cherry pick 1 (AID 588763); format: functional
[3] = target: Melanin-concentrating hormone receptor 1 (Homo sapiens, UniProt Q99705); assay: Late-stage fluorescence-based counterscreen for antagonists of the G-protein coupled receptor 7 (GPR7): cell-based dose response assay to identify antagonists of the melanin-concentrating hormone receptor 1 (MCHR1) Set 6.; format: functional
[4] = target: Neuropeptides B/W receptor type 1 (Homo sapiens, UniProt P48145); assay: GPR7 antagonist potency, late-stage follow-up, cell-based, fluorescence, dose response, set 6 (AID 588583); format: functional
[5] = target: DNA dC->dU-editing enzyme APOBEC-3A (Homo sapiens, UniProt P31941); assay: SAR analysis of small molecule inhibitors of APOBEC3A DNA Deaminase via a fluorescence-based single-stranded DNA deaminase assay - Set 2.; format: functional; conditions: read-out: IC50_Mean
[6] = target: DNA dC->dU-editing enzyme APOBEC-3G (Homo sapiens, UniProt Q9HC16); assay: SAR analysis of small molecule inhibitors of APOBEC3G DNA Deaminase via a fluorescence-based single-stranded DNA deaminase assay - Set 2.; format: functional; conditions: read-out: IC50_Mean
Insulin-degrading enzyme [7] = target: T1, Insulin-degrading enzyme (Homo sapiens, UniProt P14735); assay: activators of recombinant IDE enzyme, dose response, counter-screen for IDE activator project, biochemical, fluorescence polarization (AID 588681)
T1 sequence (P14735 whole entry): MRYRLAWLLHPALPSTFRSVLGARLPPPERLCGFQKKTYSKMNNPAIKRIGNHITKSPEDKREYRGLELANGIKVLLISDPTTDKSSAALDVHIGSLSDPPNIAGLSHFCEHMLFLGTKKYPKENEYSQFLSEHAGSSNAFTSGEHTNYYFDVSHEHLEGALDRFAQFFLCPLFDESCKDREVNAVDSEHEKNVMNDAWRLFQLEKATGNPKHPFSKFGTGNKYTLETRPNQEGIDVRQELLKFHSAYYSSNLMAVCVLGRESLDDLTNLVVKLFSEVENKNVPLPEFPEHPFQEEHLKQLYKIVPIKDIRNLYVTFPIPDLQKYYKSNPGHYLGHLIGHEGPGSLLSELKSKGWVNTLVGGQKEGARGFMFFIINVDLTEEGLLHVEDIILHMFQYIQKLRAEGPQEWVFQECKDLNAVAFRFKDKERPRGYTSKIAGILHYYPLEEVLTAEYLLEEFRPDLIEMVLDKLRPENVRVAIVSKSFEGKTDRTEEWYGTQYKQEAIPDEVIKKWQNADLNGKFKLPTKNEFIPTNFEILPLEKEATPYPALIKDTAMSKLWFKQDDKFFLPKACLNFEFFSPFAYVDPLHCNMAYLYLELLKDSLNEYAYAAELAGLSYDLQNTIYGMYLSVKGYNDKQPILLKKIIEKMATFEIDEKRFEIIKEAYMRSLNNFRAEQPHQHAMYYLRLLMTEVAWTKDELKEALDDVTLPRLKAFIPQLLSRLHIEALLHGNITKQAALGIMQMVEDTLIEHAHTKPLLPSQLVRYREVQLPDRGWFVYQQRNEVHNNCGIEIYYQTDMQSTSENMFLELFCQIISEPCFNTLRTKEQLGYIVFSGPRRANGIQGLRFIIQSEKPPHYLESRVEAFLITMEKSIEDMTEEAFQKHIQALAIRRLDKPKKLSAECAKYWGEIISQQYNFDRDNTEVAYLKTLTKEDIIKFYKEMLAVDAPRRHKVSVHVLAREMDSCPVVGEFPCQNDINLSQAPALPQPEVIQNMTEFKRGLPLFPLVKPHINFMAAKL

Insulin-degrading enzyme [8] = target: T1, Insulin-degrading enzyme; assay: activators of endogenous IDE in HEK cells, dose response, cell-based, fluorescence polarization (AID 588439); format: functional
HEK293 [9] = assay: HEK cell cytotoxicity by LDH release, dose response, cytotoxicity control for IDE activator project, fluorescence, HEK cells (AID 588440); format: functional, cell-based; conditions: Homo sapiens;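 also: cytotoxicity by LDH release measuring loss of membrane integrity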
HEK293 [10] = assay: optical interference in Abeta FP readout, dose response, artefact control for IDE activator project, biochemical, fluorescence polarization (AID 588442); format: functional, cell-based; conditions: Homo sapiens

Sequence of Beta-2 adrenergic receptor (P07550 whole entry): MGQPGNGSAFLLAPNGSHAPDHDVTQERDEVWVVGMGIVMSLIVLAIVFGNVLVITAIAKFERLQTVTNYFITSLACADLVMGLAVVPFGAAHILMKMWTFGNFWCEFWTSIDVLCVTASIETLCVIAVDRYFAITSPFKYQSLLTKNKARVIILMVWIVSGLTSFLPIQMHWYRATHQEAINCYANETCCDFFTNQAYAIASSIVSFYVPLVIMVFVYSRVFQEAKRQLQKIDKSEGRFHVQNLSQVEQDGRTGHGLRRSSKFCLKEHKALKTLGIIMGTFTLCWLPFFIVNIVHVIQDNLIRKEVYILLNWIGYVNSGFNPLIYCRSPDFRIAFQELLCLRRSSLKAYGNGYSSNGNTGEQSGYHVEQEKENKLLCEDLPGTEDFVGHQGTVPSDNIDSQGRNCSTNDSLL
Sequence of ALK tyrosine kinase receptor (Q9UM73 whole entry): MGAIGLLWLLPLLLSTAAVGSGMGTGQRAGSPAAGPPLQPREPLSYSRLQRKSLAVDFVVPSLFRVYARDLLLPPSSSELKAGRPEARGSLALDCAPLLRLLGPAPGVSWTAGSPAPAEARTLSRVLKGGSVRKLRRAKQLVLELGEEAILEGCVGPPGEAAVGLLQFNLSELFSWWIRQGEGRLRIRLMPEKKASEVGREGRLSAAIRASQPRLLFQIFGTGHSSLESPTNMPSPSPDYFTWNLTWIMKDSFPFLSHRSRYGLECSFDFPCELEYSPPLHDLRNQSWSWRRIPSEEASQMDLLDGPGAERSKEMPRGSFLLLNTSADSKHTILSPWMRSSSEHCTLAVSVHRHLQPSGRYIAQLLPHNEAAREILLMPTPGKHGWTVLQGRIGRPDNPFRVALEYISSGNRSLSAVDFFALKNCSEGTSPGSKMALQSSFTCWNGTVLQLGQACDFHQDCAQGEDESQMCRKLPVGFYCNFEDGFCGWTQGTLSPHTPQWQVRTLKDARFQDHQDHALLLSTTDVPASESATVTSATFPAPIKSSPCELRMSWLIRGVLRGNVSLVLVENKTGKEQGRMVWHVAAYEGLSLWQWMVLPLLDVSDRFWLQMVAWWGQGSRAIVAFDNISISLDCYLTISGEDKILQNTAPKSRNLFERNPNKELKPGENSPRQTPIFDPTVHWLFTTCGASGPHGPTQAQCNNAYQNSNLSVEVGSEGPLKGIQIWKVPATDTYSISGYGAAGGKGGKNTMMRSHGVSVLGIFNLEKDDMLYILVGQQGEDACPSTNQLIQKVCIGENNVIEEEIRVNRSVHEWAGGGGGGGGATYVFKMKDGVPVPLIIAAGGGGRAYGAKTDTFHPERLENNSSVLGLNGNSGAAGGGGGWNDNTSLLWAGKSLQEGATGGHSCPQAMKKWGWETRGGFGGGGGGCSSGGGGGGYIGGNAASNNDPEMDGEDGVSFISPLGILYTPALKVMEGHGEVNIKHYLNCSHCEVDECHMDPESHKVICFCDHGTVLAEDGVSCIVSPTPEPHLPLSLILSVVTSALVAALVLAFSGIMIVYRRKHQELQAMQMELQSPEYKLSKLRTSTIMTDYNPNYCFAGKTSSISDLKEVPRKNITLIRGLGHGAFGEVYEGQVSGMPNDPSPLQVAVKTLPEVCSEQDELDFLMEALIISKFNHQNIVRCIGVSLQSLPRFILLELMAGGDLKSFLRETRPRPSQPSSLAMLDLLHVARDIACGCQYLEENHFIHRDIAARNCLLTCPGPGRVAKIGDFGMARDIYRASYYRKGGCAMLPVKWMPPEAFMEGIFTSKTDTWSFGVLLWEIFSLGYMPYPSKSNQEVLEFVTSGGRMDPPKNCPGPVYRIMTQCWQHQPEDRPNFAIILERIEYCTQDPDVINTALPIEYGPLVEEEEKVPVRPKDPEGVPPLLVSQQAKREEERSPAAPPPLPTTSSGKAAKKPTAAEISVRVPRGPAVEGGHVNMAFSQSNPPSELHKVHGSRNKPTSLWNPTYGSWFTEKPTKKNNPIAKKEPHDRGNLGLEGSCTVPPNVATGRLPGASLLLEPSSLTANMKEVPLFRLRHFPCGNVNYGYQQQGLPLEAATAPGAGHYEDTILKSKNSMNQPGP
Sequence of Aurora kinase B (Q96GD4 whole entry): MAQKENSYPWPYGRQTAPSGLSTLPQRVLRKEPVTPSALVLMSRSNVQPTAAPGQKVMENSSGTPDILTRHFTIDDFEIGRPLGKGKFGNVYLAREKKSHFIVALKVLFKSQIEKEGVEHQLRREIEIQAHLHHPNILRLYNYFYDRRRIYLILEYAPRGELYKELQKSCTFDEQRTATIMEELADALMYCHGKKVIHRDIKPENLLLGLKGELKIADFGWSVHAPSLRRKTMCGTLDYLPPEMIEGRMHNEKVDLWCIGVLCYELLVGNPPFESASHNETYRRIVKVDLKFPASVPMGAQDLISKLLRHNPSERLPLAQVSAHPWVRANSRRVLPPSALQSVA
Sequence of Neuropeptides B/W receptor type 1 (P48145 whole entry): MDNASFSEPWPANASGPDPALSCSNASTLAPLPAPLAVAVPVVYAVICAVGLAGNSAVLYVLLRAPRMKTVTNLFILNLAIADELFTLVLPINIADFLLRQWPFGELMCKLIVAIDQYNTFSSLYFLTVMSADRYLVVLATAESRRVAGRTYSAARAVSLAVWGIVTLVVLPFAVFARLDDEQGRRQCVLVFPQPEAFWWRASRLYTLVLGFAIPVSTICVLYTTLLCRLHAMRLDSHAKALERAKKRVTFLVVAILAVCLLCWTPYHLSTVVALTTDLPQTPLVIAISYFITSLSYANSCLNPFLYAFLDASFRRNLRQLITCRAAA
Sequence of Focal adhesion kinase 1 (Q05397 whole entry): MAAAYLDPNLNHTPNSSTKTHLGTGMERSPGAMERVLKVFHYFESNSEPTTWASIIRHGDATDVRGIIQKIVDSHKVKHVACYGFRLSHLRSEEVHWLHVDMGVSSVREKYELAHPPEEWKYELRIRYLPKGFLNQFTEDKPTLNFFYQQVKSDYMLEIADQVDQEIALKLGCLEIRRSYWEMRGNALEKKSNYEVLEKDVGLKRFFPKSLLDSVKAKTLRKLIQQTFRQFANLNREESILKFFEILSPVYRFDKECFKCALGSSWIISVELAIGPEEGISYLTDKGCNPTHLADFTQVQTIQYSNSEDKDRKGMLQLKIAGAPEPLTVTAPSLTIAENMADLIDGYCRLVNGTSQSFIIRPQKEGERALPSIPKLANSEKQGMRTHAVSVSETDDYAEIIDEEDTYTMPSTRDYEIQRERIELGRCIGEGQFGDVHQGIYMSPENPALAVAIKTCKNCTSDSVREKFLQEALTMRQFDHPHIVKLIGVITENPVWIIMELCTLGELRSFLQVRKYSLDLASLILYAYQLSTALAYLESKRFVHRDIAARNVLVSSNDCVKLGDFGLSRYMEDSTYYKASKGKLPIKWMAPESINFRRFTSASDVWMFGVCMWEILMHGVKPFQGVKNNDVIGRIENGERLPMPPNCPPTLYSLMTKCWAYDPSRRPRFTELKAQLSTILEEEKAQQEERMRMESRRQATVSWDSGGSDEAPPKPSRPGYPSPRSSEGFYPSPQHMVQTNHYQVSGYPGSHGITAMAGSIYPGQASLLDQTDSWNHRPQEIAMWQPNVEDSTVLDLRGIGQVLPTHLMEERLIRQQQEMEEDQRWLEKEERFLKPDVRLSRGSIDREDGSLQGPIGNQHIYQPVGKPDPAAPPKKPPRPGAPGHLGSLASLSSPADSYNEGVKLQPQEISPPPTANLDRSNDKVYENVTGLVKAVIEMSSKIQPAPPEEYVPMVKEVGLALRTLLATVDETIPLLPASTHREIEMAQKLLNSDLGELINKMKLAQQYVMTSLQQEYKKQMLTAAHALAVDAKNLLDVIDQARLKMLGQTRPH
Sequence of DNA dC->dU-editing enzyme APOBEC-3G (Q9HC16 whole entry): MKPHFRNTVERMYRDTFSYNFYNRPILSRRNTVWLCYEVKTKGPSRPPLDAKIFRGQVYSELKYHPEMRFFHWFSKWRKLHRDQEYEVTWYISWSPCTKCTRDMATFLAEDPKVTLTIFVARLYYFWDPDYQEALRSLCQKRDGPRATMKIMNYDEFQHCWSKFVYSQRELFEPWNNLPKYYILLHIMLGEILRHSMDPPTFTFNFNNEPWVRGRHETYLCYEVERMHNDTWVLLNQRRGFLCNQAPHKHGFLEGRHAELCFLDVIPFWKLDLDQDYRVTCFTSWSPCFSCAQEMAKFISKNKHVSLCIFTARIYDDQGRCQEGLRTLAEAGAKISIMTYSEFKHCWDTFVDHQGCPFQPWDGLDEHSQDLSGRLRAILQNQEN
Sequence of DNA dC->dU-editing enzyme APOBEC-3A (P31941 whole entry): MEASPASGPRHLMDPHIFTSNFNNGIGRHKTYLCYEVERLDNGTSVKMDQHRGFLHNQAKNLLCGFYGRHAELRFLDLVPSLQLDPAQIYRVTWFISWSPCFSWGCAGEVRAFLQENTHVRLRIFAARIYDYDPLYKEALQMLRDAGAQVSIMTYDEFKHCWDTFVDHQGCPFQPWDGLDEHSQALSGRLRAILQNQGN
Sequence of Melanin-concentrating hormone receptor 1 (Q99705 whole entry): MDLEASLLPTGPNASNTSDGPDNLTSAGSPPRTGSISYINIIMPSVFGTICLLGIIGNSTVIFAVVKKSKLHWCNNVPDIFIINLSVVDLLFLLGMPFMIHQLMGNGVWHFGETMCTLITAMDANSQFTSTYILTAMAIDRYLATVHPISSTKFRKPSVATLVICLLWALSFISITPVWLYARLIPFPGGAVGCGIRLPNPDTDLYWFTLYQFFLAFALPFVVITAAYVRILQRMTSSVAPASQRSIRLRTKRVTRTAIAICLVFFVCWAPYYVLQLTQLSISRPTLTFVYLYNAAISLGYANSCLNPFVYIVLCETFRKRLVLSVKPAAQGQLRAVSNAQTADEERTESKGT

SMILES: Cc1cc(N2CCOCC2)cc2[nH]c(-c3c(NCC(O)c4ccccc4)cc[nH]c3=O)nc12 (stereo not drawn)
Ki [1]: 79.4 nM (active)
Ki (Aurora kinase A): 251 nM (active)
Ki (Focal adhesion kinase 1): 31.6 nM (active)
Ki (Aurora kinase B): 50.1 nM (active)

SMILES: Cc1ccc(-c2csc3nnc(SCCOc4ccccc4)n23)cc1
IC50 [5]: > 99000 nM (inactive)
IC50 [6]: > 99000 nM (inactive)

SMILES: O=C(COc1cccc2cccnc12)Nc1cccc(S(=O)(=O)N2CCCC2)c1
EC50 (Insulin-degrading enzyme [7]): > 54700 nM (inactive)
EC50 (Insulin-degrading enzyme [8]): > 54700 nM (inactive)
IC50 (HEK293 [9]): > 89200 nM (inactive)
EC50 (HEK293 [10]): > 55900 nM (inactive)

Next, values leading:

EC50 [2]: 2460 nM (active)
SMILES: Cc1ccc(N(C)S(=O)(=O)c2cc(-c3cnc(C4CC4)o3)ccc2C)cc1

IC50 [3]: 1140 nM (active)
IC50 [4]: 1140 nM (active)
SMILES: COc1ccc(Oc2c(Cl)cnn(CC(=O)Nc3ccccc3-c3ccccc3)c2=O)cc1
